Test results reported in patent US20200383327A1, “METHOD OF IMPROVING PLANT PERFORMANCE” (The State of Israel, Ministry of Agriculture & Rural …, priority 2018, published 2020).
“Also recorded” adds a separate entry of the source.

Experiments:
Type in all cases: in vivo
[1] = Number of flowers and stigmas of Petunia plants
Description: FIGS. 22A-22C are vertical bar graphs showing the effect of Phe solution on the number of flowers per plant. Petunia plants were treated once a week for 5 weeks with Phe solution (2 mM, 6 mM, 15 mM, 35 mM, or none, i.e., control). Numbers of flowers were counted and documented over a period of 7 weeks for Petunia ‘easy-rider’ strain (FIG. 22A) and Petunia ‘white dreams’ strain (FIG. 22B).

[2] = test system: Oidium neolycopersici; assay: Oidium powdery mildew on tomato plants; conditions: 24 days after treatment
Description: The Phe (P) solution was applied by spraying and by drench on the tomato plants at 3 days before and 4 hours before incubation in the greenhouse. Incidence of Oidium powdery mildew was evaluated 24 days after treatment. […] The Phe and shatakh 90 solutions were applied by spraying on the tomato plants at 3 days before and 4 hours before incubation in the greenhouse. Incidence of Oidium powdery mildew was evaluated 24 days after treatment.
(§1) Conidia of Oidium neolycopersici were collected from leaves of a diseased plant, suspended in water and sprayed on the tomato plants. The plants were kept in a greenhouse with 18-28° C. Disease severity of Oidium powdery mildew was evaluated on a scale of 0-100% where 100=whole canopy covered by disease symptoms.

[3] = test system: Anthracnose; assay: Anthracnose incidence on harvested mango after orchard flowering spray; conditions: application during orchard flowering; stored at ambient temperature for 12 days; FIG. 23B
From the text: (§2) FIGS. 23A-C: Effect of flowering application on disease incidence. Avocado and Mango cv. ‘Kent’ orchards were sprayed with fungicide (Pyrimethanil+Fludioxonil) or with phenylalanine during flowering. (FIG. 23A). Powdery Mildew incidence (percentage) per inflorescence in mango orchard. (FIG. 23B). Anthracnose incidence (percentage) on harvested mango stored at ambient temperature for 12 days. (FIG. 23CB). Anthracnose incidence (percentage) on harvested avocado stored at ambient temperature for 14 days.
(§3) Flowering is one of the more susceptible organs of the tree. Pathogenic fungi can penetrate during flowering and either infect the flower (e.g., powdery mildew) or endophytically colonize the stem and the fruit without causing any visible symptoms. Those fungi (e.g. Colletotrichum and Lasiodiplodia) become active during abiotic stress or during fruit ripening and cause fruit stem-end rot and anthracnose.

[4] = test system: Powdery Mildew; assay: Powdery mildew incidence per inflorescence in mango orchard sprayed during flowering; conditions: application during orchard flowering; FIG. 23A
From the text: as §2, §3

[5] = test system: Tomato yellow leaf curl virus (TYLCV); assay: Tomato yellow leaf curl virus severity on tomato plants; conditions: 4 mM Phe solution, spray and drench to root zone; AUDPC during 51 days; FIG. 13
Description: FIG. 13 is a bar graph showing the effect of 4 mM solution on the severity of Tomato yellow leaf curl virus (TYLCV) on leaves of tomato plants. The Phe solution was applied by spraying and by drench on the tomato plants at 3 days before and 4 hours before incubation in the greenhouse close to TYLCV infected tomato plants. Infection was natural by the vector insect silverleaf white fly. Disease severity was evaluated on a scale of 0-100% severity of symptoms coverage during 51 days after treatment and it is expressed as the area under disease progress curve (AUDPC).
The effect of Phe on TYLCV Begomovirus on tomato plants was assessed. Tomato yellow leaf curl virus (TYLCV) is a DNA virus from the genus Begomovirus. The virus is transmitted by an insect vector the whitefly Bemisia tabaci, (silverleaf whitefly; sweet potato whitefly from the family Aleyrodidae). Plants infected are tomato and also eggplant, potato, tobacco, bean, and pepper. Virus infection causes stunting, reduction of leaf size, upward cupping/curling of leaves, chlorosis on leaves and flowers, and reduction of fruit production.

[6] = test system: Tetranychus urticae; assay: Red spider mite damage on tomato plants, natural infestation in greenhouse; conditions: 4 mM Phe solution, drench or spray, each treatment; AUDPC during 30 days; FIG. 9
Description: FIG. 9 is a bar graph showing the effect of 4 mM Phe solution on the severity of Tetranychus urticae red spider mite on leaves of tomato plants. The Phe solution was applied by spraying and by drench on the tomato plants at 3 days before and 4 hours before incubation in the greenhouse. Symptoms severity was evaluated on a scale of 0-100% severity of symptoms coverage during 30 days after treatment and it is expressed as the area under disease progress curve (AUDPC).
The red spider mite Tetranychus urticae Koch, (also two-spotted spider mite) occurred naturally on the treated tomato plants. The plants were kept in a greenhouse with 18-28° C. Typical scratching symptoms severity were evaluated on each plant; 0=no infection (all leaves are symptomless) and 100=leaves were fully covered by symptoms.

[7] = test system: Oidiopsis sicula; assay: Oidiopsis powdery mildew on tomato plants; conditions: 4 mM Phe solution, drench or spray, each treatment; 24 days after treatment; FIG. 12
Description: FIG. 12 is a bar graph showing the effect of 4 mM Phe solution on the severity of Oidiopsis sicula powdery mildew on tomato plants. The Phe solution was applied by spraying and by drench on the tomato plants at 3 days before and 4 hours before incubation in the greenhouse Incidence of Oidiopsis powdery mildew was evaluated 24 days after treatment.
as §1, with “Oidiopsis sicula” for “Oidium neolycopersici”, “Oidiopsis” for “Oidium”, “100=all leaves” for “100=whole canopy”

[8] = Plant crop production (fruits)
Description: FIGS. 21A-21D are bar graphs showing the effects of 1-4 mM solution on plant crop production (e.g., fruits). Plants were treated with 2 mM once or twice, once with 4 mM or non-treated (control). (21A) is a graph showing the cumulative weight of fruits per plant. (21B) is a graph showing the number of fruits per plant. (21C) is a graph showing the average weight of a fruit. (21D) is a graph showing the number of young fruits, e.g., “set fruit”.

## N[C@@H](Cc1ccccc1)C(=O)O [Phe, Phenylalanine]
[1]; Phe solution once a week for 5 weeks vs control, FIGS. 22A-22B
  Number of flowers: more flowers
[1]; Phe solution vs control, FIG. 22C
  Number of stigmas: more flowers and stigmas; also recorded: more stigmas compared to control
[2]; 4 mM Phe solution, drench or spray, each treatment, FIG. 11A
  Severity of Oidium powdery mildew on tomato leaves: significantly suppressed
[2]; spray, 4 mM Phe, 0.1% Shatah 90, or combination, FIG. 11B
  Severity of Oidium powdery mildew on tomato leaves: significantly suppressed
[3]
  Postharvest anthracnose in mango: reduced
[4]
  Mango powdery mildew: reduced
[5]
  Severity of Tomato yellow leaf curl virus on tomato plants canopy: significantly suppressed
[6]
  Severity of damage of the Tetranychus urticae red spider mite on tomato leaves: significantly suppressed
[7]
  Severity of Oidiopsis powdery mildew on tomato leaves: significantly suppressed
[8]; 4 mM-treated plants vs control, FIG. 21D
  Number of young fruits (set fruit): greater number of young fruits
[8]; Phe solution vs control
  Total crop yielded (fruits): significantly increased the total crop yielded
[8]; Phe treated vs control
  Cumulative fruit weight: significantly greater cumulative fruit weight
  Number of fruits: comparable amount
[8]; Phe treated vs control, FIG. 21C
  Average weight per fruit: significantly greater average weight per fruit
